In patent US20220364989A1, “METHOD FOR MEASURING PHOTOTOXICITY OR PHOTOALLERGY AND REAGENT FOR USE THEREIN” (FUJIFILM Corporation, priority 2018, published 2022):

Columns and labels:
[1] = NAC depletion under and without ultraviolet irradiation, HPLC with UV detection (281 nm)
[2] = reported in References 1 to 3; cited from earlier work
[3] = Average score of NAC and NAL depletion and phototoxicity or photoallergy determination, fluorescence detection; conditions: for Average score (%) / Average score (%) without light irradiation: without light irradiation
[4] = Average score of NAC and NAL depletion and phototoxicity or photoallergy determination, UV detection
[5] = NAC depletion under and without ultraviolet irradiation, HPLC with fluorescence detection (284 nm excitation, 333 nm fluorescence); conditions: for NAC Depletion (%) / NAC Depletion (%) without light irradiation: without light irradiation
[6] = NAL depletion under and without ultraviolet irradiation, HPLC with UV detection (281 nm)
[7] = NAL depletion under and without ultraviolet irradiation, HPLC with fluorescence detection (284 nm excitation, 333 nm fluorescence); conditions: for NAL Depletion (%) / NAL Depletion (%) without light irradiation: without light irradiation
[8] = reported in References 1 and 2; cited from earlier work
[9] = 25° C. 24 hours light-shielded, test substance solution 1 mmol/L
[10] = 2,000 μW/cm^2 for 1 hour then 25° C. 23 hours, test substance solution 1 mmol/L
[11] = average of NAC and NAL depletion
[12] = under light irradiation, photoallergic compound concentration 0.05 mg/mL
[13] = under light irradiation, photoallergic compound concentration 0.2 mg/mL
[14] = under light irradiation, photoallergic compound concentration 0.5 mg/mL
[15] = without light irradiation, photoallergic compound concentration 0.05 mg/mL
[16] = without light irradiation, photoallergic compound concentration 0.2 mg/mL
[17] = without light irradiation, photoallergic compound concentration 0.5 mg/mL
[18] = photoallergic compound concentration 0.05 mg/mL
[19] = photoallergic compound concentration 0.2 mg/mL
[20] = photoallergic compound concentration 0.5 mg/mL

COc1c2ccoc2cc2oc(=O)ccc12 [compound 31]
Difference in depletion (under light irradiation - without light irradiation) NAC (%) [1]: 89.6%
NAC Depletion (%) without light irradiation [1, 9]: 1.1%
NAC Depletion (%) under light irradiation [1, 10]: 90.6%
In vivo phototoxicity [2]: Positive
Difference in depletion (under light irradiation - without light irradiation) Average score (%) ([3]; single compound): 48.9%
Average score (%) ([3]; single compound): 0.1%
Difference in depletion (under light irradiation - without light irradiation) Average score (%) [4]: 48.9%
Average score (%) under light irradiation [4, 11]: 49.5%
Average score (%) without light irradiation [4, 11]: 0.6%
Difference in depletion (under light irradiation - without light irradiation) NAC (%) ([5]; single compound): 91.9%
NAC Depletion (%) ([5]; single compound): 0.0%
Difference in depletion (under light irradiation - without light irradiation) NAL (%) [6]: 8.2%
NAL Depletion (%) without light irradiation [6, 9]: 0.2%
NAL Depletion (%) under light irradiation [6, 10]: 8.4%
Difference in depletion (under light irradiation - without light irradiation) NAL (%) ([7]; single compound): 6.0%
NAL Depletion (%) ([7]; single compound): 0.2%
In vivo photoallergy [8]: Negative

CC(C)OC(=O)C(C)(C)Oc1ccc(C(=O)c2ccc(Cl)cc2)cc1 [compound 38]
NAC Depletion (%) without light irradiation [1, 9]: 0.0%
NAC Depletion (%) under light irradiation [1, 10]: −1178.7%
In vivo phototoxicity [2]: Positive
Difference in depletion (under light irradiation - without light irradiation) Average score (%) ([3]; single compound): 67.8%
Average score (%) ([3]; single compound): 0.0%
Average score (%) without light irradiation [4, 11]: 0.0%
Difference in depletion (under light irradiation - without light irradiation) NAC (%) ([5]; single compound): 98.7%
NAC Depletion (%) ([5]; single compound): 0.0%
Difference in depletion (under light irradiation - without light irradiation) NAL (%) [6]: 40.7%
NAL Depletion (%) without light irradiation [6, 9]: 0.0%
NAL Depletion (%) under light irradiation [6, 10]: 40.7%
Difference in depletion (under light irradiation - without light irradiation) NAL (%) ([7]; single compound): 37.0%
NAL Depletion (%) ([7]; single compound): 0.0%

CC1(C)SC2C(NC(=O)Cc3ccccc3)C(=O)N2C1C(=O)O (centres unmarked) [compound 44]
Difference in depletion (under light irradiation - without light irradiation) NAC (%) [1]: 1.5%
NAC Depletion (%) without light irradiation [1, 9]: 1.4%
NAC Depletion (%) under light irradiation [1, 10]: 2.8%
In vivo phototoxicity [2]: Negative
Difference in depletion (under light irradiation - without light irradiation) Average score (%) ([3]; single compound): 0.9%
Average score (%) ([3]; single compound): 1.0%
Difference in depletion (under light irradiation - without light irradiation) Average score (%) [4]: 0.6%
Average score (%) under light irradiation [4, 11]: 2.2%
Average score (%) without light irradiation [4, 11]: 1.6%
Difference in depletion (under light irradiation - without light irradiation) NAC (%) ([5]; single compound): 1.3%
NAC Depletion (%) ([5]; single compound): 1.1%
Difference in depletion (under light irradiation - without light irradiation) NAL (%) [6]: −0.2%
NAL Depletion (%) without light irradiation [6, 9]: 1.9%
NAL Depletion (%) under light irradiation [6, 10]: 1.6%
Difference in depletion (under light irradiation - without light irradiation) NAL (%) ([7]; single compound): 0.4%
NAL Depletion (%) ([7]; single compound): 0.8%
In vivo photoallergy [8]: Negative

CC(O)CCO (centres unmarked) [compound 46]
Difference in depletion (under light irradiation - without light irradiation) NAC (%) [1]: 0.7%
NAC Depletion (%) without light irradiation [1, 9]: 0.0%
NAC Depletion (%) under light irradiation [1, 10]: 0.7%
Difference in depletion (under light irradiation - without light irradiation) Average score (%) ([3]; single compound): 0.1%
Average score (%) ([3]; single compound): 0.1%
Difference in depletion (under light irradiation - without light irradiation) Average score (%) [4]: 0.4%
Average score (%) under light irradiation [4, 11]: 0.4%
Average score (%) without light irradiation [4, 11]: 0.0%
Difference in depletion (under light irradiation - without light irradiation) NAC (%) ([5]; single compound): 0.2%
NAC Depletion (%) ([5]; single compound): 0.0%
Difference in depletion (under light irradiation - without light irradiation) NAL (%) [6]: 0.0%
NAL Depletion (%) without light irradiation [6, 9]: 0.0%
NAL Depletion (%) under light irradiation [6, 10]: 0.0%
Difference in depletion (under light irradiation - without light irradiation) NAL (%) ([7]; single compound): −0.1%
NAL Depletion (%) ([7]; single compound): 0.1%

Tetrachlorosalicylanilide [1-4]
NAC Depletion (%) under light irradiation [1, 12]: (58.0) %
NAC Depletion (%) under light irradiation [1, 13]: (−96.9) %
NAC Depletion (%) under light irradiation [1, 14]: (−338.2) %
NAC Depletion (%) without light irradiation [1, 15]: 34.2%
NAC Depletion (%) without light irradiation [1, 16]: 70.1%
NAC Depletion (%) without light irradiation [1, 17]: 93.7%
Difference in depletion (under light irradiation - without light irradiation) Average score (%) [3, 18]: 54.5%
Difference in depletion (under light irradiation - without light irradiation) Average score (%) [3, 19]: 58.9%
Difference in depletion (under light irradiation - without light irradiation) Average score (%) [3, 20]: 54.3%
Average score (%) under light irradiation [3, 18]: 65.4%
Average score (%) under light irradiation [3, 19]: 85.2%
Average score (%) under light irradiation [3, 20]: 93.0%
Average score (%) without light irradiation [3, 18]: 10.9%
Average score (%) without light irradiation [3, 19]: 26.2%
Average score (%) without light irradiation [3, 20]: 38.7%
Average score (%) under light irradiation [4, 12]: 44.0%
Average score (%) under light irradiation [4, 13]: −14.9%
Average score (%) under light irradiation [4, 14]: −128.5%
Average score (%) without light irradiation [4, 15]: 17.0%
Average score (%) without light irradiation [4, 16]: 35.4%
Average score (%) without light irradiation [4, 17]: 48.2%
Difference in depletion (under light irradiation - without light irradiation) NAC (%) [5, 18]: 76.5%
Difference in depletion (under light irradiation - without light irradiation) NAC (%) [5, 19]: 45.3%
Difference in depletion (under light irradiation - without light irradiation) NAC (%) [5, 20]: 21.5%
NAC Depletion (%) under light irradiation [5, 18]: 98.2%
NAC Depletion (%) under light irradiation [5, 19]: 97.5%
NAC Depletion (%) under light irradiation [5, 20]: 97.2%
NAC Depletion (%) without light irradiation [5, 18]: 21.7%
NAC Depletion (%) without light irradiation [5, 19]: 52.2%
NAC Depletion (%) without light irradiation [5, 20]: 75.6%
Difference in depletion (under light irradiation - without light irradiation) NAL (%) [6, 18]: 30.3%
Difference in depletion (under light irradiation - without light irradiation) NAL (%) [6, 19]: 66.5%
Difference in depletion (under light irradiation - without light irradiation) NAL (%) [6, 20]: 78.7%
NAL Depletion (%) under light irradiation [6, 12]: 30.1%
NAL Depletion (%) under light irradiation [6, 13]: 67.1%
NAL Depletion (%) under light irradiation [6, 14]: (81.3) %
NAL Depletion (%) without light irradiation [6, 15]: −0.2%
NAL Depletion (%) without light irradiation [6, 16]: 0.6%
NAL Depletion (%) without light irradiation [6, 17]: 2.6%
Difference in depletion (under light irradiation - without light irradiation) NAL (%) [7, 18]: 32.5%
Difference in depletion (under light irradiation - without light irradiation) NAL (%) [7, 19]: 72.6%
Difference in depletion (under light irradiation - without light irradiation) NAL (%) [7, 20]: 87.1%
NAL Depletion (%) under light irradiation [7, 18]: 32.5%
NAL Depletion (%) under light irradiation [7, 19]: 72.9%
NAL Depletion (%) under light irradiation [7, 20]: 88.9%
NAL Depletion (%) without light irradiation [7, 18]: 0.0%
NAL Depletion (%) without light irradiation [7, 19]: 0.2%
NAL Depletion (%) without light irradiation [7, 20]: 1.8%
